In the supplement of paper PMC10307832:

Columns and labels:
Assay in all cases: relative viability (nuclei count vs DMSO), 5 days (fraction); higher = more cells survive
Dabrafenib + Palbociclib = compound: CC(C)(C)c1nc(-c2cccc(NS(=O)(=O)c3c(F)cccc3F)c2F)c(-c2ccnc(N)n2)s1 [Dabrafenib] + CC(=O)c1c(C)c2cnc(Nc3ccc(N4CCNCC4)cn3)nc2n(C2CCCC2)c1=O [Palbociclib] (partner 0.5 µM)
In short: (§1)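 Relative viability divides the nuclei count in treated wells by that in vehicle wells. Lung cancer cell lines were seeded in 1536-well plates, dosed by pin tool the next day, and fixed and stained after 5 days in one step with final 0.05% Triton X-100, 1% formaldehyde and 1 ug/ml Hoechst. Dosing was a single drug or a fixed anchor-drug dose plus five library-drug doses (not always all listed) in √10 steps, and values are medians of duplicate plates imaged at 4×.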

Dabrafenib + Navitoclax = compound: CC(C)(C)c1nc(-c2cccc(NS(=O)(=O)c3c(F)cccc3F)c2F)c(-c2ccnc(N)n2)s1 [Dabrafenib] + CC1(C)CCC(c2ccc(Cl)cc2)=C(CN2CCN(c3ccc(C(=O)NS(=O)(=O)c4ccc(N[C@H](CCN5CCOCC5)CSc5ccccc5)c(S(=O)(=O)C(F)(F)F)c4)cc3)CC2)C1 [Navitoclax] (partner 0.5 µM)
In short: as §1

Dabrafenib + Linsitinib = compound: CC(C)(C)c1nc(-c2cccc(NS(=O)(=O)c3c(F)cccc3F)c2F)c(-c2ccnc(N)n2)s1 [Dabrafenib] + C[C@]1(O)C[C@@H](c2nc(-c3ccc4ccc(-c5ccccc5)nc4c3)c3c(N)nccn32)C1 [Linsitinib] (partner 1 µM)
In short: as §1

Dabrafenib + Trametinib = compound: CC(C)(C)c1nc(-c2cccc(NS(=O)(=O)c3c(F)cccc3F)c2F)c(-c2ccnc(N)n2)s1 [Dabrafenib] + CC(=O)Nc1cccc(-n2c(=O)n(C3CC3)c(=O)c3c(Nc4ccc(I)cc4F)n(C)c(=O)c(C)c32)c1 [Trametinib] (partner 0.02 µM)
In short: as §1

| Cell Line | relative viability (Dabrafenib + Palbociclib; first compound 0.003 µM) | relative viability (Dabrafenib + Palbociclib; first compound 0.009487 µM) | relative viability (Dabrafenib + Palbociclib; first compound 0.03 µM) | relative viability (Dabrafenib + Palbociclib; first compound 0.09487 µM) | relative viability (Dabrafenib + Palbociclib; first compound 0.3 µM) | relative viability (Dabrafenib + Navitoclax; first compound 0.009487 µM) | relative viability (Dabrafenib + Navitoclax; first compound 0.03 µM) | relative viability (Dabrafenib + Navitoclax; first compound 0.09487 µM) | relative viability (Dabrafenib + Navitoclax; first compound 0.3 µM) | relative viability (Dabrafenib + Linsitinib; first compound 0.009487 µM) | relative viability (Dabrafenib + Linsitinib; first compound 0.03 µM) | relative viability (Dabrafenib + Linsitinib; first compound 0.09487 µM) | relative viability (Dabrafenib + Linsitinib; first compound 0.3 µM) | relative viability (Dabrafenib + Trametinib; first compound 0.003 µM) | relative viability (Dabrafenib + Trametinib; first compound 0.009487 µM) | relative viability (Dabrafenib + Trametinib; first compound 0.03 µM) | relative viability (Dabrafenib + Trametinib; first compound 0.09487 µM) | relative viability (Dabrafenib + Trametinib; first compound 0.3 µM) | relative viability (Dabrafenib + Navitoclax; first compound 0.003 µM) | relative viability (Dabrafenib + Linsitinib; first compound 0.003 µM) |
| --- | --- | --- | --- | --- | --- | --- | --- | --- | --- | --- | --- | --- | --- | --- | --- | --- | --- | --- | --- | --- |
| HCC-366 | 0.434 | 0.403 | 0.336 | 0.354 | 0.344 | 1.02 | 0.963 | 1.05 | 1.11 | 0.787 | 0.0905 | 0.549 | 0.892 | 0.324 | 0.348 | 0.225 | 0.374 | 0.396 |  |  |
| HCC-827 | 0.465 | 0.3 | 0.374 |  | 0.525 | 1.02 | 0.97 | 1.01 | 1.01 | 0.964 | 0.96 | 0.998 | 0.974 | 0.511 | 0.53 | 0.522 |  | 0.616 | 0.997 | 0.905 |
| HOP-62 | 0.466 | 0.423 | 0.433 | 0.471 | 0.498 | 1.01 | 1.02 | 0.718 | 1.02 | 1.07 | 0.804 | 0.831 | 0.977 | 0.352 | 0.41 | 0.36 | 0.429 | 0.469 | 0.89 |  |
| IA-LM |  |  |  |  |  | 0.657 | 0.649 | 0.304 | 0.172 | 0.575 | 0.547 | 0.283 | 0.424 |  |  |  |  |  | 0.901 | 0.443 |
| LC-2-ad | 0.52 | 0.511 | 0.495 | 0.476 | 0.478 | 0.425 | 0.381 | 0.417 | 0.438 | 0.768 | 0.802 | 0.764 | 0.851 | 0.891 | 0.931 | 0.901 | 0.862 | 0.992 | 0.558 | 0.93 |
| LCLC-97TM1 |  | 0.206 | 0.266 | 0.184 | 0.198 | 0.368 | 0.536 |  | 0.427 | 0.18 | 0.187 |  | 0.192 |  | 0.225 | 0.193 | 0.21 | 0.205 |  |  |
| LCLC-103H | 0.467 | 0.495 | 0.432 | 0.455 | 0.514 |  |  |  |  | 1.08 | 0.84 | 1.13 | 1.09 | 0.635 | 0.707 | 0.614 | 0.684 | 0.701 |  | 1.04 |
| LK-2 | 0.687 | 0.377 |  | 0.555 | 0.84 | 0.985 | 0.662 | 0.938 | 0.936 | 0.875 | 0.225 | 0.381 | 0.53 | 0.692 | 0.925 | 0.473 | 0.774 | 0.934 | 1.09 | 0.587 |
| LOU-NH91 |  | 0.558 | 0.589 | 0.533 | 0.543 | 0.848 | 0.741 | 0.719 | 0.664 | 1.15 | 0.93 | 0.91 | 0.944 |  | 0.774 | 0.792 | 0.782 | 0.837 |  |  |
| LU99A | 0.477 | 0.387 | 0.388 | 0.39 | 0.393 | 0.722 | 0.792 | 0.896 | 0.753 | 0.532 | 0.484 | 0.476 | 0.476 | 0.453 | 0.384 | 0.508 | 0.529 | 0.574 | 0.928 | 0.542 |
| NCI-H358 | 0.111 | 0.149 | 0.12 | 0.153 | 0.122 |  |  |  |  | 1.03 | 0.705 | 0.813 | 0.776 | 0.109 | 0.116 | 0.159 | 0.162 | 0.178 |  |  |
| NCI-H522 |  | 1.02 | 0.932 | 0.952 | 1.08 |  |  |  |  |  |  |  |  |  | 0.829 | 0.753 | 0.682 | 0.792 |  |  |
| NCI-H596 |  |  |  |  |  | 0.996 | 0.764 | 1 | 0.921 | 1.14 | 0.796 | 1.08 | 1.14 |  | 0.84 | 0.707 | 0.747 | 0.704 | 0.733 | 1 |
| NCI-H650 |  | 0.375 | 0.308 | 0.305 | 0.238 |  |  |  |  | 1.27 | 0.769 | 0.43 | 0.516 |  | 0.913 | 1.01 | 0.942 | 1.04 |  |  |
| NCI-H661 | 0.383 | 0.406 | 0.426 | 0.458 | 0.433 |  |  |  |  | 0.594 | 0.375 | 0.521 | 0.52 | 0.562 | 0.527 | 0.59 | 0.556 | 0.568 |  | 0.501 |
| NCI-H1299 |  |  |  |  |  | 1.02 | 1.06 | 1.01 | 1.01 | 0.959 | 0.798 | 0.743 | 0.625 |  |  |  |  |  | 0.997 | 0.941 |
| NCI-H1563 |  |  |  |  |  |  |  |  |  | 1.18 | 1.16 | 1.2 | 1.39 |  |  |  |  |  |  | 1.16 |
| NCI-H1648 | 0.317 | 0.215 |  | 0.251 | 0.329 |  |  |  |  |  |  |  |  | 0.457 | 0.524 |  | 0.425 | 0.585 |  |  |
| NCI-H1650 | 0.332 | 0.382 | 0.235 | 0.301 | 0.358 | 1.44 | 1.21 | 1.35 | 1.42 |  |  |  |  | 0.671 | 0.609 | 0.552 | 0.666 | 0.673 | 1.25 |  |
| NCI-H1703 |  |  |  |  |  | 1.41 | 1.6 | 0.951 | 1.09 | 1.12 | 0.75 | 0.834 | 1.18 |  |  |  |  |  | 1.33 | 0.335 |
| NCI-H2170 | 0.429 | 0.377 | 0.383 | 0.377 | 0.397 | 0.704 | 0.463 | 0.641 | 0.594 |  |  |  |  | 0.908 | 0.982 | 0.842 | 0.839 | 0.919 | 0.702 |  |
| NCI-H2342 | 0.511 | 0.566 | 0.474 | 0.608 | 0.523 |  |  |  |  |  |  |  |  | 0.808 | 0.79 | 0.76 | 0.866 | 0.927 |  |  |
| SW 900 |  | 0.532 |  | 0.523 | 0.58 |  |  |  |  |  |  |  |  |  | 0.671 |  | 1.04 | 0.93 |  |  |
